{"source": "patent US10392383B2", "about": "“3-(1H-benzo[d]imidazol-2-yl)-1H-pyrazolo[4,3-b]pyridines and therapeutic uses thereof” (Samumed, LLC, priority 2015, dated 2019)", "format_in_all_cases": "cell-based", "key": {"[1]": {"tested_on": "Wnt activity (Sp5-Luc reporter, Wnt-responsive promoter) in SW480 colon carcinoma cells", "experiment": "Wnt activity screening assay: Sp5-Luc reporter gene assay in SW480 cells", "settings": "Homo sapiens, overnight incubation, 10-point curve starting from 10 μM", "how_it_was_run": "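Luminescence (BrightGlo) was normalised to DMSO-only wells and fitted with a four-parameter variable-slope model for EC50; beyond 10 μM, % inhibition at 10 μM is given. Stable Sp5-Luc SW480 reporter cells, 4,000/well in 1% FBS, were exposed overnight at 37 °C to compounds, top 10 μM, 1:3 dilutions, 0.1% DMSO.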"}, "[2]": {"tested_on": "SW480 colon cancer cells", "experiment": "Cell viability assay (CellTiter-Blue) in SW480 cells", "settings": "Homo sapiens, 96 h, four days; for EC50: CellTiter-Blue, 10 μM to 0.0045 μM; for inhibition at 10 µM: read-out: percent inhibition at 10 μM (given for EC50 of >10 μM)", "how_it_was_run": "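4-day exposure, 37 °C/5% CO2; ~2×10^3 SW480 cells/well; 8-pt 1:3 curve, 10–0.0045 μM, duplicates vs DMSO controls. Resazurin→resorufin fluorescence readout, ~3 h. EC50 by nonlinear fit; if >10 μM, % inhibition at 10 μM reported.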"}, "[3]": {"tested_on": "primary human fibroblasts derived from IPF patients (LL29 cells) treated with TGF-β1", "experiment": "Inhibition of the fibrotic process: αSMA staining in TGF-β1-treated LL29 fibroblasts", "settings": "Fibroblast; for EC50: 96 h, LL29 fibroblasts treated with TGF-β1 (20 ng/mL), 4 days, Table 4; for inhibition at 10 µM: LL29 fibroblasts treated with TGF-β1, Table 4, read-out: percent inhibition at 10 μM (given in parentheses for EC50 >10 μM)", "how_it_was_run": "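EC50 from triplicate-well dose-response fits of % αSMA-positive cells, normalized to TGF-β1-stimulated DMSO controls, with SYTOX-positive dead cells excluded. LL29 IPF fibroblasts received compound at 10 μM–1.87 nM (0.1% DMSO) plus 20 ng/mL TGF-β1 for 4 days in 1% FBS medium; above 10 μM, % inhibition at 10 μM reported.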"}}}
{"smiles": "Clc1ccc(-c2cccc3[nH]c(-c4n[nH]c5ccc(-c6cncc(CN7CCCC7)c6)nc45)nc23)s1", "note": "[Compound 1049, 3-(4-(5-Chlorothiophen-2-yl)-1H-benzo[d]imidazol-2-yl)-5-(5-(pyrrolidin-1-ylmethyl)pyridin-3-yl)-1H-pyrazolo[4,3-b]pyridine]", "values": [{"measurement": "EC50", "setting": "[1]", "value": 1250, "unit": "nM"}, {"measurement": "EC50", "setting": "[2]", "value": 584, "unit": "nM"}, {"measurement": "EC50", "setting": "[3]", "value": 733, "unit": "nM"}]}
{"smiles": "O=C(Nc1cncc(-c2ccc3[nH]nc(-c4nc5c(-c6ccc(Cl)s6)cccc5[nH]4)c3n2)c1)C1CCC1", "note": "[Compound 1056, N-(5-(3-(4-(5-Chlorothiophen-2-yl)-1H-benzo[d]imidazol-2-yl)-1H-pyrazolo [4,3-b]pyridin-5-yl)pyridin-3-yl)cyclobutanecarboxamide]", "values": [{"measurement": "EC50", "setting": "[1]", "value": 3300, "unit": "nM"}, {"measurement": "inhibition at 10 µM", "setting": "[2]", "value": 0, "unit": "%"}, {"measurement": "EC50", "setting": "[2]", "value": "> 10000", "unit": "nM"}, {"measurement": "EC50", "setting": "[3]", "value": 2360, "unit": "nM"}]}
{"smiles": "NC1CN(c2cncc(-c3ccc4[nH]nc(-c5nc6c(-c7ccc(Cl)s7)cccc6[nH]5)c4n3)n2)C1", "note": "[Compound 1068, 1-(6-(3-(4-(5-Chlorothiophen-2-yl)-1H-benzo[d]imidazol-2-yl)-1H-pyrazolo [4,3-b]pyridin-5-yl)pyrazin-2-yl)azetidin-3-amine]", "values": [{"measurement": "EC50", "setting": "[1]", "value": 1240, "unit": "nM"}, {"measurement": "EC50", "setting": "[2]", "value": 953, "unit": "nM"}, {"measurement": "EC50", "setting": "[3]", "value": 1710, "unit": "nM"}]}
{"smiles": "c1cc(-c2ccc3c(c2)OCO3)c2nc(-c3n[nH]c4ccc(C5CCNCC5)nc34)[nH]c2c1", "note": "[Compound 1108, 3-(4-(Benzo[d][1,3]dioxol-5-yl)-1H-benzo[d]imidazol-2-yl)-5-(piperidin-4-yl)-1H-pyrazolo[4,3-b]pyridine]", "values": [{"measurement": "EC50", "setting": "[1]", "value": 3520, "unit": "nM"}, {"measurement": "EC50", "setting": "[2]", "value": 2280, "unit": "nM"}, {"measurement": "inhibition at 10 µM", "setting": "[3]", "value": 14.1, "unit": "%"}, {"measurement": "EC50", "setting": "[3]", "value": "> 10000", "unit": "nM"}]}
{"smiles": "C1=C(c2ccc3[nH]nc(-c4nc5c(-c6ccc7c(c6)OCO7)cccc5[nH]4)c3n2)CCNC1", "note": "[Compound 1109, 3-(4-(Benzo[d][1,3]dioxol-5-yl)-1H-benzo[d]imidazol-2-yl)-5-(1,2,3,6-tetrahydropyridin-4-yl)-1H-pyrazolo[4,3-b]pyridine]", "values": [{"measurement": "EC50", "setting": "[1]", "value": 1080, "unit": "nM"}, {"measurement": "EC50", "setting": "[2]", "value": 1240, "unit": "nM"}, {"measurement": "EC50", "setting": "[3]", "value": 1590, "unit": "nM"}]}
{"smiles": "O=C(Nc1cncc(-c2ccc3[nH]nc(-c4nc5c(-c6ccccc6F)cccc5[nH]4)c3n2)c1)C(F)(F)F", "note": "[Compound 1126, 2,2,2-Trifluoro-N-(5-(3-(4-(2-fluorophenyl)-1H-benzo[d]imidazol-2-yl)-1H-pyrazolo[4,3-b]pyridin-5-yl)pyridin-3-yl)acetamide]", "values": [{"measurement": "EC50", "setting": "[1]", "value": 892, "unit": "nM"}, {"measurement": "EC50", "setting": "[2]", "value": 4360, "unit": "nM"}, {"measurement": "EC50", "setting": "[3]", "value": 2290, "unit": "nM"}]}
{"smiles": "CN1CCN(c2cccc3[nH]c(-c4n[nH]c5ccc(-c6cncc(NC(=O)C(F)(F)F)c6)nc45)nc23)CC1", "note": "[Compound 1127, 2,2,2-Trifluoro-N-(5-(3-(4-(4-methylpiperazin-1-yl)-1H-benzo[d]imidazol-2-yl)-1H-pyrazolo[4,3-b]pyridin-5-yl)pyridin-3-yl)acetamide]", "values": [{"measurement": "EC50", "setting": "[1]", "value": 3990, "unit": "nM"}, {"measurement": "EC50", "setting": "[2]", "value": 9420, "unit": "nM"}, {"measurement": "EC50", "setting": "[3]", "value": 8310, "unit": "nM"}]}
{"smiles": "Cn1cc(-c2ccc3[nH]nc(-c4nc5c(-c6ccc(F)cc6)cccc5[nH]4)c3n2)c(CO)n1", "note": "[Compound 1129, (4-(3-(4-(4-Fluorophenyl)-1H-benzo[d]imidazol-2-yl)-1H-pyrazolo[4,3-b]pyridin-5-yl)-1-methyl-1H-pyrazol-3-yl)methanol]", "values": [{"measurement": "EC50", "setting": "[1]", "value": 2200, "unit": "nM"}, {"measurement": "EC50", "setting": "[2]", "value": 3010, "unit": "nM"}, {"measurement": "EC50", "setting": "[3]", "value": 1200, "unit": "nM"}]}
{"smiles": "Cn1cc(-c2ccc3[nH]nc(-c4nc5c(N6CCCCC6)cccc5[nH]4)c3n2)c(CO)n1", "note": "[Compound 1134, (1-Methyl-4-(3-(4-(piperidin-1-yl)-1H-benzo[d]imidazol-2-yl)-1H-pyrazolo [4,3-b]pyridin-5-yl)-1H-pyrazol-3-yl)methanol]", "values": [{"measurement": "EC50", "setting": "[1]", "value": 3390, "unit": "nM"}, {"measurement": "inhibition at 10 µM", "setting": "[2]", "value": 18.2, "unit": "%"}, {"measurement": "EC50", "setting": "[2]", "value": "> 10000", "unit": "nM"}, {"measurement": "inhibition at 10 µM", "setting": "[3]", "value": 0, "unit": "%"}, {"measurement": "EC50", "setting": "[3]", "value": "> 10000", "unit": "nM"}]}
{"smiles": "Cn1cc(-c2ccc3[nH]nc(-c4nc5c(-c6ccc7c(c6)OCO7)cccc5[nH]4)c3n2)c(CO)n1", "note": "[Compound 1152, (4-(3-(4-(Benzo[d][1,3]dioxol-5-yl)-1H-benzo[d]imidazol-2-yl)-1H-pyrazolo[4,3-b]pyridin-5-yl)-1-methyl-1H-pyrazol-3-yl)methanol]", "values": [{"measurement": "EC50", "setting": "[1]", "value": 929, "unit": "nM"}, {"measurement": "EC50", "setting": "[2]", "value": 613, "unit": "nM"}, {"measurement": "inhibition at 10 µM", "setting": "[3]", "value": 0, "unit": "%"}, {"measurement": "EC50", "setting": "[3]", "value": "> 10000", "unit": "nM"}]}
